{"source": "patent EP0664121A1", "about": "“Inhibition of ldl oxidation and atherosclerosis” (ELI LILLY AND COMPANY, priority 1993, dated 1995)", "key": {"[1]": {"tested_on": "Resident macrophages from the mouse peritoneal cavity", "test": "Macrophage-mediated oxidation (cellular modification) of LDL, TBAR values", "format": "cell-based", "settings": "LDL 1 mg/ml, 24 hrs, media-alone value subtracted", "protocol": "Resident macrophages from the mouse peritoneal cavity were plated at 1 x 10⁶ cells per well in F10 media without serum. […] The wells designated media alone represents LDL incubated overnight on the same plate with F10 media without cells. This value was subtracted from the TBAR values obtained in the presence of resident macrophages and reflects the extent of cellular modification of LDL."}, "LDL": {"tested_on": "LDL", "test": "Thiobarbituric acid assay of copper-induced LDL peroxidation", "format": "biochemical", "settings": "250 µg LDL in 1 ml, 5 µM CuSO₄, 5-18 hrs at 37 degrees C", "protocol": "The thiobarbituric acid assay as described by Schuh et al., (PNAS 75: 3173, 1978) and modified by Morel et al., (Lab Invest 55: 419, 1986) was used to determine the degree of inhibition of LDL peroxidation by estradiol and Compound A of the invention. A 1 ml solution containing 250 micrograms (µg) of LDL with either estradiol or Compound A of the invention in amounts varying from 1-30 µM is incubated for 5-18 hrs at 37 degrees C in the presence of 5 µM CuSO₄. Following incubation, 1 ml of 25% trichloroacetic acid and 1 ml of 1% thiobarbituric acid is added. All samples are boiled for 45 minutes and fluorescence is measured at 515 nm excitation and 553 nm emission wavelengths. (Compound A is a compound of formula 1 wherein R₁ and R₃ are hydrogen, and R₂ is 1-pyrrolidino)."}}}
{"smiles": "C[C@]12CC[C@@H]3c4ccc(O)cc4CC[C@H]3[C@@H]1CC[C@@H]2O", "note": "[Estradiol, estradiol, reference compound]", "values": [{"measurement": "TBAR Units", "setting": "[1]; 25 µM compound", "value": 30, "unit": "TBAR Units"}]}
{"smiles": "O=C(c1ccc(OCCN2CCCC2)cc1)c1c(-c2ccc(O)cc2)sc2cc(O)ccc12", "note": "[Compound A]", "values": [{"measurement": "TBAR Units", "setting": "LDL; 1µM compound", "value": 142, "unit": "TBAR UNITS"}, {"measurement": "TBAR Units", "setting": "LDL; 5µM compound", "value": 109, "unit": "TBAR UNITS"}, {"measurement": "TBAR Units", "setting": "LDL; 25µM compound", "value": 78, "unit": "TBAR UNITS"}, {"measurement": "TBAR Units", "setting": "[1]; 1 µM compound", "value": 129, "unit": "TBAR Units"}, {"measurement": "TBAR Units", "setting": "[1]; 2.5 µM compound", "value": 75, "unit": "TBAR Units"}, {"measurement": "TBAR Units", "setting": "[1]; 5 µm compound", "value": 30, "unit": "TBAR Units"}]}
